“And” between values parts separate entries of the source, which are not always exact repeats. Equal values may be shown once.
Biological target: T1, canine TRPM8 (Canis lupus familiaris, UniProt Q1A7N1)
T1 construct: expressed in transfected cells
Experiment: In Vitro Canine TRPM8 Functional Assay (Ca2+ fluorescence, icilin activation)
Type: cell-based
Settings: for inhibition at 0.5 µM: HEK293, 0.5 μM compound; for inhibition at 0.5 µM / % Inh @ 0.2 μM / inhibition at 0.2 µM / % Inh @ 0.5 μM / inhibition at 1 µM / % Inh @ 1 μM: canine TRPM8 HEK293, icilin; for IC50: HEK293 cells stably expressing canine TRPM8, icilin activation, Ca2+ fluorescence; for % Inh @ 0.2 μM: 0.2 μM compound; for inhibition at 0.2 µM: HEK293, 0.2 μM compound; for % Inh @ 0.5 μM: 0.5 μM compound; for inhibition at 1 µM: HEK293, 1 μM compound; for % Inh @ 1 μM: 1 μM compound
Protocol: The functional activity of compounds of the formula (I) was determined by measuring changes in intracellular calcium concentration using a Ca^2+-sensitive fluorescent dye. The changes in fluorescent signal were monitored by a fluorescence plate reader, either a FLIPR™ (Molecular Devices) or FDSS (Hamamatsu). Increases in intracellular Ca^2+ concentration were readily detected upon activation with icilin.
HEK293 cells stably expressing canine TRPM8 were routinely grown as monolayers in Dulbecco's minimum essential medium supplemented with 10% FBS, 2 mM L-glutamine, 100 units/mL penicillin, 100 ug/mL streptomycin and 400 μg/mL G418. Cells were maintained in 5% CO2 at 37° C. At 24 hrs prior to assay, cells were seeded in black wall, clear-base poly-D-lysine coated 384-well plates (BD Biosciences, NJ, USA) at a density of 5,000 cells per well in culture medium and grown overnight in 5% CO2 at 37° C. On assay day, growth media was removed and cells were loaded with Calcium 3 Dye (Molecular Devices) for 35 min at 37° C., under 5% CO2 and then for 25 min at room temperature and atmosphere. Subsequently, cells were tested for agonist-induced increases in intracellular Ca^2+ levels using FLIPR™ or FDSS. Cells were challenged with compounds of the formula (I) (at varying concentrations) and intracellular Ca^2+ was measured for 5 min prior to the addition of icilin to all wells to achieve a final concentration that produces approximately an 80% maximal response.
Maximal fluorescence intensity (FI) achieved upon addition of icilin was exported from the FLIPR or FDSS software and further analyzed using GraphPad Prism 3.02 (Graph Pad Software Inc., CA, U.S.A.). Basal FI was subtracted prior to normalizing data to percent of maximal response. Curves were generated using the average of quadruplicate wells for each data point, were analyzed using nonlinear regression of either sigmoidal dose response or sigmoidal dose response (variable slope).

T1 sequence (Q1A7N1 1-1104): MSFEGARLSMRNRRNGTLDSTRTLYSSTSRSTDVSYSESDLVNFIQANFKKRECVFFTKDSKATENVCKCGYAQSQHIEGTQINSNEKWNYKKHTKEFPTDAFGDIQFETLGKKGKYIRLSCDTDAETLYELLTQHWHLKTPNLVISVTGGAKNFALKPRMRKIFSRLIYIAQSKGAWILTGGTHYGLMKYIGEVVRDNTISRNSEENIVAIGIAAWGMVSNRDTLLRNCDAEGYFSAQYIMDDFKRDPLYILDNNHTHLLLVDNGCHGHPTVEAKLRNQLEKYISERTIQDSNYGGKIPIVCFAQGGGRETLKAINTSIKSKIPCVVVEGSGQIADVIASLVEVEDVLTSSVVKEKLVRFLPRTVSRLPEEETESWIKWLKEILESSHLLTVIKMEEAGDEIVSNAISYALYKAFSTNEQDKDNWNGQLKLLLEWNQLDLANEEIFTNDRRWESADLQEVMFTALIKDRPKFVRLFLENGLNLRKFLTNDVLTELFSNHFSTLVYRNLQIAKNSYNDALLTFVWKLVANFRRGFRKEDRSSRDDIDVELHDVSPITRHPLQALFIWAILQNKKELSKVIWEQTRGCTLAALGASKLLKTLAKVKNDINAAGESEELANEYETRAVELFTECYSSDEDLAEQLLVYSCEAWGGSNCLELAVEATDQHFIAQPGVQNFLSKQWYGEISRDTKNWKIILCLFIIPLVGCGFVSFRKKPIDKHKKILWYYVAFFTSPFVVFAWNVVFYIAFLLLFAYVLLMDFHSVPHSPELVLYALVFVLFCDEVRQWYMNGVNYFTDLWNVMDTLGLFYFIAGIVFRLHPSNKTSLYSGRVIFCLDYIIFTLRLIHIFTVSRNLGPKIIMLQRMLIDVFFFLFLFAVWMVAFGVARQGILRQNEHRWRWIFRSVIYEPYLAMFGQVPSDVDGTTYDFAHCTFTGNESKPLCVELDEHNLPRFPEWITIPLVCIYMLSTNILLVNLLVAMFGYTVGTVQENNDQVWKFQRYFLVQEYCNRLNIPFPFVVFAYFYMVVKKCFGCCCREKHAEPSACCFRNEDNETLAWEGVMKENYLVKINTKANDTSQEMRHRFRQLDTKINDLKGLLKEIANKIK

Compound | IC50 | % Inh @ 0.5 μM (0.5 µM) [%] | also measured
COc1ccccc1C1CCCN1C(=O)C(Nc1ccccc1F)c1ccc(Br)cc1 (racemic) [Cpd 90] | 7 nM | – | inhibition at 0.5 µM: 97%
O=C(C(Nc1ccccc1)c1cccnc1)N1Cc2ccccc2C1 (racemic) [Cpd 215] | – | – | % Inh @ 0.2 μM: 18%
O=C(C(Nc1ccccc1)c1ccccn1)N1Cc2ccccc2C1 (racemic) [Cpd 216] | – | – | % Inh @ 0.2 μM: 32%
O=C(C(Nc1ccccc1)c1ccccn1)N1CCCC1c1ccccc1F (racemic) [Cpd 218] | – | – | % Inh @ 0.2 μM (0.2 µM): 49%
Cn1cc(C(Nc2ccccc2F)C(=O)N2CCCC2c2ccccc2F)c2ccccc21 (racemic) [Cpd 250] | – | – | % Inh @ 0.2 μM: 25%
O=C(C(Nc1ccccc1F)c1ccc(Br)cc1)N1CCCC1c1cccnc1 (racemic) [Cpd 269] | – | – | % Inh @ 0.2 μM: 47%
O=C(C(Nc1ccccc1F)c1ccc2c(c1)CCO2)N1CCCC1c1cccnc1 (racemic) [Cpd 282] | – | – | % Inh @ 0.2 μM: 17%
O=C(C(Nc1ccccc1F)c1cc2cccnc2s1)N1CCCC1c1ccccc1F (racemic) [Cpd 320] | 25 nM | – | inhibition at 0.2 µM: 87%
CN1CCN(NC(=O)[C@H](Nc2ccccc2)c2ccc(C(C)(C)C)cc2)[C@H](c2ccccc2)C1 (relative stereo) [Cpd 56, (2RS*)-2-(4-tert-Butyl-phenyl)-N-[(2RS*)-4-methyl-2-phenyl-piperazin-1-yl]-2-phenylamino-acetamide] | – | – | % Inh @ 0.5 μM: 26%
O=C([C@@H](CNc1ccccc1)c1ccc(C(F)(F)F)cc1)N1CCC[C@@H]1c1ccccc1 (relative stereo) [Cpd 130, 3-Phenylamino-1-[(2RS*)2-phenyl-pyrrolidin-1-yl]-(2RS*)-2-(4-trifluoromethyl-phenyl)-propan-1-one] | 36.2 nM | – | % Inh @ 0.5 μM: 101%
CC(C)(C)c1ccc(C(Nc2ccccc2)C(=O)N2CCCC2c2ccccc2Cl)cc1 (single isomer, unassigned) [Cpd 1] | 313 nM | – | inhibition at 1 µM: 101%
CC(C)(C)c1ccc(C(Nc2ccccc2)C(=O)N2CCCC2c2ccccc2Cl)cc1 (single isomer, unassigned) [Cpd 2] | 72.6 nM | – | % Inh @ 1 μM: 100.93%
CC(C)(C)c1ccc(C(Nc2ccccc2)C(=O)N2CCCC2c2ccc(Cl)cc2)cc1 (single isomer, unassigned) [Cpd 7] | 636 nM | – | % Inh @ 1 μM: 89.12%
CC(C)(C)c1ccc(C(Nc2ccccc2)C(=O)N2CCCC2c2cccc(Cl)c2)cc1 (single isomer, unassigned) [Cpd 8] | 778 nM | – | inhibition at 1 µM: 86.6%
CC(C)(C)c1ccc(C(Nc2ccccc2)C(=O)N2CCCC2c2cccc(Cl)c2)cc1 (single isomer, unassigned) [Cpd 9] | 161 nM | – | % Inh @ 1 μM: 102.98%
CC(C)(C)c1ccc(C(Nc2ccccc2)C(=O)N2CCC[C@H]2CNc2ccccc2)cc1 (single isomer, unassigned) [Cpd 10] | 517 nM | – | inhibition at 1 µM: 102%
O=C(C(Nc1ccccc1)c1ccc(C(F)(F)F)cc1)N1CCCC1c1ccccc1Cl (single isomer, unassigned) [Cpd 21] | 175 nM | – | inhibition at 0.5 µM: 103%
O=C(C(Nc1ccccc1)c1ccc(C(F)(F)F)cc1)N1CCCC1c1ccccc1Cl (single isomer, unassigned) [Cpd 22] | 378 nM | 102.36 | –
O=C(C(Nc1ccccc1)c1ccc(C(F)(F)F)cc1)N1CCCC1c1ccccc1Cl (single isomer, unassigned) [Cpd 23] | 17.2 nM | 103.39 | –
O=C(C(Nc1ccccc1)c1ccc(C(F)(F)F)cc1)N1CCCC1c1ccccc1C(F)(F)F (single isomer, unassigned) [Cpd 30] | 110 nM | – | inhibition at 0.5 µM: 103%
O=C(C(Nc1ccccc1)c1ccc(C(F)(F)F)cc1)N1CCCC1c1ccccc1C(F)(F)F (single isomer, unassigned) [Cpd 31] | 48.5 nM | 104.03 | –
O=C(C(Nc1ccccc1)c1ccc(C(F)(F)F)cc1)N1CCCC1c1ccccc1F (single isomer, unassigned) [Cpd 45] | 105 nM | – | inhibition at 0.5 µM: 101%
O=C(C(Nc1ccccc1)c1ccc(C(F)(F)F)cc1)N1CCCC1c1ccccc1F (single isomer, unassigned) [Cpd 46] | 7.46 nM | 101.53 | –

Compound | IC50 | % Inh @ 0.5 μM (0.5 µM) [%] | also measured
O=C(C(Nc1ccccc1)c1ccc(C(F)(F)F)cc1)N1CCCC1c1ccccc1F (single isomer, unassigned) [Cpd 47] | 200 nM | 99.791 | –
O=C(C(Nc1ccccc1)c1ccc(C(F)(F)F)cc1)N1CCCC1c1ccccc1F (single isomer, unassigned) [Cpd 48] | 219 nM | 85.869 | –
O=C(C(Nc1ccccc1)c1ccc(C(F)(F)F)cc1)N1CCCC1c1ccccc1Cl (single isomer, unassigned) [Cpd 60] | 41.4 nM | 103.24 | –
O=C(C(Nc1ccccc1)c1ccc(C(F)(F)F)cc1)N1CCCC1c1ccccc1Cl (single isomer, unassigned) [Cpd 61] | 168 nM | 103.2 | –
O=C(C(Nc1ccc(F)cc1)c1ccc(C(F)(F)F)cc1)N1CCCC1c1ccccc1 (single isomer, unassigned) [Cpd 75] | 20 nM | – | inhibition at 0.5 µM: 98%
O=C(C(Nc1ccc(F)cc1)c1ccc(C(F)(F)F)cc1)N1CCCC1c1ccccc1 (single isomer, unassigned) [Cpd 76] | 101 nM | 97 | –
O=C(C(Nc1ccccc1F)c1ccc(C(F)(F)F)cc1)N1CCCC1c1cccc(F)c1 (single isomer, unassigned) [Cpd 133] | 20.9 nM | – | inhibition at 0.5 µM: 98%
O=C([C@@H](Nc1ccccc1F)c1ccc(C(F)(F)F)cc1)N1CCC[C@H]1c1ccccc1F (single isomer, unassigned) [Cpd 152] | 61.3 nM | – | inhibition at 0.5 µM: 101%
O=C(C(Nc1ccccc1F)c1ccc(C(F)(F)F)cc1)N1CCCC1c1ccccc1F (single isomer, unassigned) [Cpd 154] | 104 nM | 97.552 | –
O=C(C(Nc1ccccc1F)c1ccc(Cl)cc1)N1CCCC1c1ccccc1F (single isomer, unassigned) [Cpd 157] | 146 nM | – | inhibition at 0.5 µM: 93%
O=C(C(Nc1ccccc1F)c1ccc(Br)cc1)N1CCCC1c1ccccc1F (single isomer, unassigned) [Cpd 159] | 109 nM and 38 nM | – | inhibition at 0.2 µM: 97%; inhibition at 0.5 µM: 94%
O=C(C(Nc1ccccc1F)c1ccc(Br)cc1)N1CCCC1c1ccccc1F (single isomer, unassigned) [Cpd 160] | 39 nM and 13 nM | 95 | % Inh @ 0.2 μM (0.2 µM): 87%
O=C(C(Nc1c(F)cccc1F)c1ccc(Br)cc1)N1CCCC1c1ccccc1F (single isomer, unassigned) [Cpd 161] | 63 nM and 36 nM | – | inhibition at 0.2 µM: 98%; inhibition at 0.5 µM: 93%
O=C(C(Nc1c(F)cccc1F)c1ccc(Br)cc1)N1CCCC1c1ccccc1F (single isomer, unassigned) [Cpd 162] | 5.45 nM | 99 | % Inh @ 0.2 μM (0.2 µM): 100%
O=C(C(Nc1cccc(F)c1F)c1ccc(Cl)cc1)N1CCCC1c1ccccc1F (single isomer, unassigned) [Cpd 163] | 145 nM | – | inhibition at 0.5 µM: 94%
O=C(C(Nc1cccc(F)c1F)c1ccc(Cl)cc1)N1CCCC1c1ccccc1F (single isomer, unassigned) [Cpd 164] | 26 nM | 96 | –
O=C(C(Nc1cccc(F)c1F)c1ccc(Cl)cc1)N1CCCC1c1ccccc1Cl (single isomer, unassigned) [Cpd 165] | 162 nM | – | inhibition at 0.5 µM: 99%
O=C(C(Nc1cccc(F)c1F)c1ccc(Cl)cc1)N1CCCC1c1ccccc1Cl (single isomer, unassigned) [Cpd 166] | 61 nM | 96 | –
COc1ccccc1C1CCCN1C(=O)C(Nc1ccccc1F)c1ccc(Br)cc1 (single isomer, unassigned) [Cpd 175] | 69 nM | – | inhibition at 0.2 µM: 85%
COc1ccccc1C1CCCN1C(=O)C(Nc1ccccc1F)c1ccc(Br)cc1 (single isomer, unassigned) [Cpd 176] | 30 nM | – | % Inh @ 0.2 μM (0.2 µM): 94%
O=C(C(Nc1ccccc1F)c1ccc(C(F)(F)F)cc1)N1CCCC1c1cccc(F)c1 (single isomer, unassigned) [Cpd 185] | 150 nM | – | inhibition at 0.2 µM: 82%
O=C(C(Nc1ccccc1F)c1ccc(C(F)(F)F)cc1)N1CCCC1c1cccc(F)c1 (single isomer, unassigned) [Cpd 187] | 4 nM | – | % Inh @ 0.2 μM (0.2 µM): 98%

Reference: patent US8143259B2, “Cold menthol receptor antagonists” (Janssen Pharmaceutica, NV, priority 2008, dated 2012)
